Test results published in patent US20160082036A1, “HYDROXYALKYL STARCH FOR THE TREATMENT OF CANCERS BY REDUCTION OF TUMOR GROWTH RATES” (Fresenius Kabi Deutschland GmbH, priority 2012, published 2016).

What was measured:
[1] = Example 2: body weight and blood parameters of MT-3 tumor-bearing mice; type: in vivo, NMRI:nu/nu mice
Procedure: Summary: Mice were either treated with a single i.v. injection of docetaxel (Taxotere®) at a dose of 25 mg/kg or with the plasma expander Voluven® (20 ml/kg) or with HES 100/1.0 (approx. 740 mg/kg) dissolved in saline/EtOH to determine tumor growth and body weight over the course of the experiment.
Adult female NMRI:nu/nu mice (TACONIC Europe, Lille Skensved, Denmark) bred in the own (EPO) colony were used throughout the study.
The application volume was 10 ml/kg (approx. 200 μl/20 g mouse) mouse body weight for vehicle, HES 100/1.0 and docetaxel and 20 ml/kg for Voluven®. The route of administration was by intravenous (i.v.) injection into the tail vein.
Individual body weights of mice were determined two times weekly and mean body weight per treatment group.
Blood samples were drawn from the retro-orbital sinus under iso-flurane anaesthesia three days after the treatment. Blood samples of 50-100 μl were taken into tubes prepared with EDTA for haematological parameters from a subset of each group (generally 30-50%). The following parameters were determined: total leucocyte count (WBC), erythrocyte count (RBC), haemoglobin (HGB), haematocrit (HCT), mean corpuscular volume (MCV), mean corpuscular haemoglobin (MCH), mean corpuscular haemoglobin concentration (MCHC) and platelet count (PLT) using a Coulter Counter instrument.
Statistical evaluation of was performed with the U-test of Mann and Whitney using the Windows program […] 6. A significance level of p<0.05 was used.

[2] = test system: human breast cell carcinoma line MT-3; assay: Example 5: MT-3 xenograft tumor growth, three studies with different HES types; type: in vivo
Procedure: In another set of three studies which were performed in analogy to the studies described above in Examples 1 and 2, more different HES types have been analysed in the same setting using the MT3 cell line mouse model.
Docetaxel (Taxotere®) was obtained from Sanofi-Aventis Deutschland GmbH, (Lot CHB D9C895; Berlin, Germany) and was stored in the dark at −20° C. until use. The injection solution was prepared immediately before use by dissolving in saline solution.
Hydroxyethyl starch compounds were obtained from Fresenius Kabi Deutschland GmbH on Dec. 7, 2012 and were stored at room temperature until use. The compounds each were dissolved in saline to obtain 10% w/v solutions. The application was 400 μl/20 g mouse body weight for saline and HES solutions, while Docetaxel was given in a volume of 10 ml/kg as slow bolus. The route of administration was intravenously for all mice.
Adult female NMRI:nu/nu mice (TACONIC Europe, Lille Skensved, Denmark) bred in the own (EPO) colony were used throughout the study. At the start of experiment they were 6-8 weeks of age.
The MT-3 cell line was used for subcutaneous (s.c.) xenotransplantation in immune deficient female NMRI:nu/nu mice. The MT-3 breast carcinoma cell line was obtained from the tumour bank of the National Cancer Institute of the former USSR, WONZ, Moscow.
The cells are cryo-preserved. Cells were thawed, expanded by in vitro culture and transplanted s.c. as cell suspension in female NMRI:nu/nu mice.
The number of 5×10^6 tumour cells was transplanted s.c into the flank of each mouse. The animals were monitored for tumour growth and when tumours were palpable, generally between day 7 and day 10 after transplantation, mice were randomised into the treatment groups with 15 mice each. Day 0 is defined as the day of first treatment.
Individual tumour diameters were measured twice weekly with a calliper-like instrument. Tumour volumes were calculated according to V=(length×(width)^2)/2. […] The relative tumour volume (RTV) and the treated to control (T/C RTV) values in percent were calculated for each measurement day in relation to V values at day 0.
In study 3 mice were sacrificed when the tumor size reached more than 1.5 cm^3, or the tumors ulcereted. Study 3 was finished when the mean TV was in most groups larger than 1.0 cm^3.
Mice were treated with i.v. injection of Docetaxel (Taxotere®) at day 0 and 14 at a dose of 40 mg/kg and with the hydroxyethyl starch compounds (20 ml/kg) once weekly.
In study 1 all mice developed tumours after s.c. transplantation of 5×10^6 MT-3 cells up to a size of 0.046±0.015 cm^3 within 7 days. Mice were treated intravenously with a dose of 40 mg/kg Docetaxel (Taxotere®) at days 0 and 14, whereas four different HES specifications in saline (containing each 10% w/v) were injected in a volume of 20 ml/kg i.v. weekly (day 0, 7, 14). Saline was injected once a week (20 ml/kg). All groups were treated during the whole experimental period accordingly to the planned schedule. The tumour of control mice in study 1 grew up to a volume of 1.1±0.6 cm^3.
In study 2 all mice developed tumours after s.c. transplantation of 5×10^6 MT-3 cells up to a size of 0.081±0.033 cm^3 within 9 days. Mice were treated intravenously with a dose of 40 mg/kg docetaxel at days 0 and 14, whereas four different HES specifications in saline (containing each 10% w/v) were injected in a volume of 20 ml/kg i.v. weekly (day 0, 7, 14). Saline was injected once per week (20 ml/kg). All groups were treated during the whole experimental period accordingly to the planned schedule. The tumour of control mice grew up until day 18 to a volume of 1.48±1.04 cm^3.
In study 3 all mice developed tumours after s.c. transplantation of 5×10^6 MT-3 cells up to a size of 0.059±0.018 cm3 within 7 days. […]

[3] = blood drawn three days after single i.v. treatment

Question: Which “body weight development (in words)” value ([1]; after single i.v. treatment, FIG. 1) does the source give for `CC(=O)O[C@@]12CO[C@@H]1C[C@H](O)[C@@]1(C)C(=O)[C@H](O)C3=C(C)[C@@H](OC(=O)[C@H](O)[C@@H](NC(=O)OC(C)(C)C)c4ccccc4)C[C@@](O)([C@@H](OC(=O)c4ccccc4)[C@H]21)C3(C)C` [Docetaxel] here?
Answer: Body weight loss

Question: What about the “Platelets × 10^6 at day 11” value [1, 3] of the same compound?
Answer: 1500 ± 156 × 10^6

Question: And the “WBC × 10^6 at day 11” value [1, 3]?
Answer: 4.80 ± 0.58 × 10^6

Question: And the “tumour growth inhibition effect (in words)” value ([2]; studies 1 to 3, compared to saline control, FIGS. 7, 9, 11)?
Answer: strong inhibitory effect on tumour growth

Question: What about the “RTV T/C” value ([2]; study 1) of the same compound?
Answer: 14.4%

Question: And the “inhibition of tumour growth” value ([2]; study 1)?
Answer: more than 85%

Question: And the “RTV T/C” value ([2]; study 2)?
Answer: 16.9%

Question: And the “inhibition of tumour growth” value ([2]; study 2)?
Answer: 83%

Question: And the “RTV T/C” value ([2]; study 3, at day 7)?
Answer: 8.8%

Question: And the “inhibition of tumour growth” value ([2]; study 3, at day 7)?
Answer: 91%
